Values quoted from earlier work as cited in patent publication US20090182054A1, “Topical compositions containing solubilized dicarboxylic acids” (priority 2008, published 2009).

Experiments:
[1] = water, 25 deg C
[2] = test system: inflammatory papule lesions and erythema; conditions: topical application

solubility [1]: 0.24 gram per 100 gram of water
Compound: O=C(O)CCCCCCCC(=O)O [azelaic acid, Azelaic acid]
inflammatory papule lesions and erythema [2]: significantly reduce
